Assays:
Settings in all cases: ATP, Mg2+; 0.1 M Tris-HCl pH 7.5; 37°C
AK (acetate kinase) = target: T1, AK (acetate kinase) (Escherichia coli, UniProt P0A6A3)
T1 construct: gene ackA
Source text: coupled ADP-hexokinase/G6PDH NADPH assay on AK (acetate kinase)

PK (propionate kinase) = test system: T2, PK (propionate kinase)
T2 construct: gene tdcD
Source text: coupled ADP-hexokinase/G6PDH NADPH assay on PK (propionate kinase)

[1] = target: T3, His-tagged BK (butyrate kinase; ToBKIII) (Thermosediminibacter oceani, UniProt D9S2G7); assay: coupled ADP-hexokinase/G6PDH NADPH assay; format: biochemical
T3 construct: gene buk; entire gene (about 1,100 bp, about 360 residues) NdeI/HindIII in pET21a(+), E. coli BL21(DE3), Ni column; C-terminal vector His tag; sense primer encodes N-terminus MTFYGILA; antisense primer encodes C-terminus EKPKEYL before HindIII site (KL)
T3 sequence (D9S2G7 1-357): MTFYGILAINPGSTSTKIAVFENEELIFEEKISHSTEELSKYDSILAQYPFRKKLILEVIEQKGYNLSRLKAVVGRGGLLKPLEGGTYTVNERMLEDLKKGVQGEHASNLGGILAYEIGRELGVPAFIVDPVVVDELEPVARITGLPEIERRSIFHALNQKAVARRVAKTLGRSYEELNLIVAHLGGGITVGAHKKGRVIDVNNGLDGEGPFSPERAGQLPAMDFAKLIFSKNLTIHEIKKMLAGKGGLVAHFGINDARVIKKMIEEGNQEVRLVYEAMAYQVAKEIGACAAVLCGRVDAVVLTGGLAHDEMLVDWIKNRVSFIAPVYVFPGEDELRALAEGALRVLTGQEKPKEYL
Source text: coupled ADP-hexokinase/G6PDH NADPH assay on His-tagged BK (butyrate kinase; ToBKIII)

T1 sequence (P0A6A3 whole entry): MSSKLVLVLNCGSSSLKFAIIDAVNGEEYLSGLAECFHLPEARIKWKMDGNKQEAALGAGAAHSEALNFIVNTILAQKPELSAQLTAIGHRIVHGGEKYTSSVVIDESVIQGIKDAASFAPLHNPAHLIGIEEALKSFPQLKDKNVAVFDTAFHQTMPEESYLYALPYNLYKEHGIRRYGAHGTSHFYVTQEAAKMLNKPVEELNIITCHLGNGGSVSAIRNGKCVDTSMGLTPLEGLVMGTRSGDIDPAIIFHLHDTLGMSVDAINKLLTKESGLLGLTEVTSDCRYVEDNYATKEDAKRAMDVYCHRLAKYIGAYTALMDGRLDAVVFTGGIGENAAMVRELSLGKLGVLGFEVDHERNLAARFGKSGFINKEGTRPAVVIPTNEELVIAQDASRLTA

SMILES | AK / Km (AK (acetate kinase)) | PK / Km (PK (propionate kinase)) | BK / Km [1]
CC(=O)O [C2, acetic acid] | 9.1 mmol | 13.2 mmol | 
CCC(=O)O [C3, propionic acid] |  | 1.8 mmol | 5.1 mmol
CCCC(=O)O [C4, butyric acid] |  | 280 mmol | 2.2 mmol
CCCCC(=O)O [C5, valeric acid] |  |  | 3.3 mmol
CCCCCC(=O)O [C6, caproic acid] |  |  | 8.7 mmol

The remaining lines, values ahead:

AK / Km (AK (acetate kinase)) | PK / Km (PK (propionate kinase)) | BK / Km [1] | SMILES
 |  | 3.2 mmol | CC(C)C(=O)O [IC4, isobutyric acid]
 |  | 2.1 mmol | CC(C)CC(=O)O [IC5, isovaleric acid]
